ChEMBL document CHEMBL2429792, “2D QSAR of heteroaryl-substituted propanolamines as antihypertensive agents” (2013)

organism: Rattus norvegicus; assay: Antihypertensive activity in rat assessed as inhibition of isoproterenol-induced tachycardia; format: functional

Structure (SMILES)	log1/activity
O=C(NCCNCC(O)COc1cccc2c1OCCC2=O)Nc1ccccc1 (stereo unspecified)	4.83
COc1cc(CC(=O)NCCNCC(O)COc2ccccc2C#N)nc(-c2ccc(Cl)cc2)n1 (stereo unspecified)	4.69
Cc1ccccc1OCC(O)CNCCNC(=O)c1ccco1 (stereo unspecified)	5.38
Cc1cccc(OCC(O)CNCCNC(=O)c2ccco2)c1 (stereo unspecified)	4.9
CNC(=O)Nc1ccc(C(=O)NCCNCC(O)COc2cccc3c2OCCO3)cc1 (stereo unspecified)	7.34
N#Cc1ccccc1OCC(O)CNCCNC(=O)c1cc2ccccc2[nH]1 (stereo unspecified)	4.57
N#Cc1ccccc1OCC(O)CNCCNC(=O)c1ccco1 (stereo unspecified)	4.73
Cc1cc(C(=O)NCCNCC(O)COc2ccccc2C#N)[nH]n1 (stereo unspecified)	4.78
O=C(NCCNCC(O)COc1cccc2sccc12)Nc1ccccc1 (stereo unspecified)	4.88
CC(C)C(=O)NCCNCC(O)COc1nccs1 (stereo unspecified)	5.91
N#Cc1ccccc1OCC(O)CNCCNC(=O)Cc1c[nH]c2ccccc12 (stereo unspecified)	6.44
O=C(NCCNCC(O)COc1cccc2c1OCCO2)c1ccc(O)cc1 (stereo unspecified)	6.41
O=C(NCCNCC(O)COc1ccccc1)c1cccs1 (stereo unspecified)	5.92
CC(=O)c1ccc(C(=O)NCCNCC(O)COc2cccc3c2OCCO3)cc1 (stereo unspecified)	6.31
COc1ccc2c(O)cc(CC(=O)NCCNCC(O)COc3ccccc3C#N)nc2c1 (stereo unspecified)	6.65
O=C(NCCNCC(O)COc1ccccc1I)c1ccco1 (stereo unspecified)	5.27
O=C(NCCNCC(O)COc1cccc2c1OCCO2)Nc1ccccc1 (stereo unspecified)	4.58
CC(C)C(=O)NCCNCC(O)COc1cccc2nsnc12 (stereo unspecified)	4.52

Structure (SMILES)	log1/activity
C=CCOc1ccccc1OCC(O)CNCCNC(=O)c1ccco1 (stereo unspecified)	5.07
CC(C)C(=O)NCCNCC(O)COc1nsnc1N1CCOCC1 (stereo unspecified)	6.34
NC(=O)c1ccccc1OCC(O)CNCCNC(=O)c1cccs1 (stereo unspecified)	4.78
CC(C)C(=O)NCCNCC(O)COc1cccc2sccc12 (stereo unspecified)	5.82
O=C(NCCNCC(O)COc1ccccc1)c1cc2ccccc2[nH]1 (stereo unspecified)	4.54
N#Cc1ccccc1OCC(O)CNCCNC(=O)c1ccc2ccccc2n1 (stereo unspecified)	4.59
Nc1ccc(C(=O)NCCNCC(O)COc2cccc3c2OCCO3)cc1 (stereo unspecified)	5.5
O=C(Cc1ccccc1)NCCNCC(O)COc1cccc2c1OCCO2 (stereo unspecified)	5.41
O=C(NCCNCC(O)COc1ccccc1O)C1CCCO1 (stereo unspecified)	5.16
CC(C)NCC(O)COc1cccc2ccccc12 (stereo unspecified) [PROPRANOLOL]	6.11
CC(C)C(=O)NCCNCC(O)COc1cccc2[nH]ccc12 (stereo unspecified)	7.2
O=C(NCCNCC(O)COc1ccccc1)c1ccco1 (stereo unspecified)	5.48
N#Cc1ccccc1OCC(O)CNCCNC(=O)Cc1cccs1 (stereo unspecified)	6.95
N#Cc1ccccc1OCC(O)CNCCNC(=O)Cc1csc(-c2ccc(Cl)cc2)n1 (stereo unspecified)	4.89
O=C(NCCNCC(O)COc1cccc2occc12)Nc1ccccc1 (stereo unspecified)	5.56
O=C(NCCNCC(O)COc1ccccc1)c1ccncc1 (stereo unspecified)	5.79
O=C(NCCNCC(O)COc1cccc2ccccc12)c1ccco1 (stereo unspecified)	4.73
CC(=O)Nc1ccc(OCC(O)CNC(C)C)cc1 (stereo unspecified) [PRACTOLOL]	5.72
